Reference: article PMC8584173, “The Cytotoxic Effect of Copper (II) Complexes with Halogenated 1,3-Disubstituted Arylthioureas on Cancer and Bacterial Cells” (International Journal of Molecular Sciences, 2021)

Key:
[1] = system: SW480 (human primary colon cancer); assay: MTT cytotoxicity assay, SW480; format: cell-based; conditions: SW480, 72 h
Protocol: (§1) The human primary (SW480), metastatic (SW620) colon cancer, metastatic prostate cancer (PC3) and human immortal keratinocyte (HaCaT) cell lines were purchased from the American Type Culture Collection (ATCC, Rockville, USA). The cells were cultured in medium according to protocols (MEM for SW480 and SW620, RPMI 1640 for PC3 and DMEM for HaCaT cells) supplemented with 10% fetal bovine serum (FBS), penicillin (100 U/mL) and streptomycin (100 μg/mL) and cultured in 37 °C/ 5% CO2 humidified incubator. The cells were cultured until appropriate confluence was achieved (80–90%). Next, they were harvested by treatment with 0.25% trypsin (Gibco Life Technologies, USA) and used for studies.
(§2) Cells without studied compounds in medium were used as a control.
(§3) The cell viability was assessed by determination of MTT salt (3-(4,5-dimethylthiazol-2-yl)-2,5-diphenyltetrazolium bromide) conversion by mitochondrial dehydrogenase. MTT assay was performed as previously described. Experiments were repeated three times. Cell viability was presented as a percentage of MTT reduction in the treated cells versus the control cells. Number of viable cells cultured without studied compounds was assumed to be 100%. Decreased relative MTT level means decreased cell viability. Thiourea complexes with the highest cytotoxic potential assessed by MTT determination (with the lowest IC50) were chosen for subsequent assessments of cytotoxicity mechanisms.

[2] = system: PC3 (human metastatic prostate cancer); assay: MTT cytotoxicity assay, PC3; format: cell-based; conditions: for IC50: PC3, 72 h, MTT; for fold more active than cisplatin: PC3 cell lines
Protocol: as §1, §2, §3

[3] = system: S. aureus ATCC 25923; assay: MIC, twofold serial microdilution; format: cell-based, Staphylococcus aureus; conditions: S. aureus ATCC 25923, 18 h, 35 °C
Protocol: (§4) The antimicrobial activity of the compounds was tested on Gram-positive bacteria (Staphylococcus aureus NCTC 4163, Staphylococcus aureus ATCC 25923, Staphylococcus aureus ATCC 6538, Staphylococcus aureus ATCC 29213, Staphylococcus epidermidis ATCC 12228, Staphylococcus epidermidis ATCC 35984), Gram-negative rods (Escherichia coli ATCC 10538, Escherichia coli ATCC 25922, Pseudomonas aeruginosa ATCC 15442, Pseudomonas aeruginosa ATCC 27863) and yeasts (Candida albicans ATCC 10231, Candida albicans ATCC 90028, Candida parapsilosis ATCC 22019). Hospital methicillin-resistant strains of Staphylococcus aureus and Staphylococcus epidermidis were obtained from the collection of the Department of Pharmaceutical Microbiology, Medical University of Warsaw, Poland.
(§5) Antifungal activities were assessed using Mueller–Hinton agar + 2% glucose and 0.5 µg/mL methylene blue dye medium. Sterile filter paper discs (9 mm diameter, Whatman Number 3 chromatography paper) were dripped with tested compound solutions (in dimethylsulfoxide, DMSO) to load 400 μg of a given compound per disc. Dry discs were placed on the surface of appropriate agar medium. The results (diameter of the growth inhibition zone) were read after 18 h of incubation at 35 °C. Minimal inhibitory concentration (MIC) was tested by the twofold serial microdilution method (in 96-well microtiter plates) using Mueller–Hinton broth medium (Beckton Dickinson) for bacteria or RPMI-1640 medium for Candida species, according to CLSI guidelines. The stock solution of tested agent was prepared in DMSO and diluted in sterile water. […] The final inoculum of all studied microorganisms was 10^5 CFU/ mL^−1 (colony forming units per ml). Minimal inhibitory concentrations (the lowest concentration of a tested agent that prevents visible growth of a microorganism) were read after 18 h (bacteria) or 24 h (yeasts) of incubation at 35 °C.

[4] = system: S. aureus ATCC 29213; assay: MIC, twofold serial microdilution; format: cell-based, Staphylococcus aureus; conditions: S. aureus ATCC 29213, 18 h, 35 °C
Protocol: as §4, §5

[5] = system: S. aureus ATCC 6538; assay: MIC, twofold serial microdilution; format: cell-based, Staphylococcus aureus; conditions: S. aureus ATCC 6538, 18 h, 35 °C
Protocol: as §4, §5

[6] = system: S. aureus NCTC 4163; assay: MIC, twofold serial microdilution; format: cell-based, Staphylococcus aureus; conditions: S. aureus NCTC 4163, 18 h, 35 °C
Protocol: as §4, §5

[7] = system: P. aeruginosa ATCC 15442; assay: MIC, twofold serial microdilution; format: cell-based, Pseudomonas aeruginosa; conditions: P. aeruginosa ATCC 15442, 18 h, 35 °C
Protocol: as §4, §5

[8] = system: P. aeruginosa ATCC 27853; assay: MIC, twofold serial microdilution; format: cell-based, Pseudomonas aeruginosa; conditions: P. aeruginosa ATCC 27853, 18 h, 35 °C
Protocol: as §4, §5

[9] = system: C. albicans ATCC 10231; assay: MIC, twofold serial microdilution; format: cell-based, Candida albicans; conditions: C. albicans ATCC 10231, 24 h, 35 °C
Protocol: as §4, §5

[10] = system: C. albicans ATCC 90028; assay: MIC, twofold serial microdilution; format: cell-based, Candida albicans; conditions: C. albicans ATCC 90028, 24 h, 35 °C
Protocol: as §4, §5

[11] = system: C. parapsilosis ATCC 22019; assay: MIC, twofold serial microdilution; format: cell-based, Candida parapsilosis; conditions: C. parapsilosis ATCC 22019, 24 h, 35 °C
Protocol: as §4, §5

[12] = system: S. epidermidis 431; assay: MIC, hospital MRSE strain; format: cell-based, Staphylococcus epidermidis; conditions: hospital MRSE S. epidermidis 431
Protocol: as §4, §5

[13] = system: S. epidermidis 432; assay: MIC, hospital MRSE strain; format: cell-based, Staphylococcus epidermidis; conditions: hospital MRSE S. epidermidis 432
Protocol: as §4, §5

[14] = system: S. epidermidis 437; assay: MIC, hospital MRSE strain; format: cell-based, Staphylococcus epidermidis; conditions: hospital MRSE S. epidermidis 437
Protocol: as §4, §5

Row | SMILES | IC50 [1] [µM] | IC50 [2] [µM] | fold more active than cisplatin [2] | MIC [3] [µg/mL] | MIC [4] [µg/mL] | MIC [5] [µg/mL] | MIC [6] [µg/mL] | MIC [7] [µg/mL] | MIC [8] [µg/mL] | MIC [9] [µg/mL] | MIC [10] [µg/mL] | MIC [11] [µg/mL] | MIC [12] [µg/mL] | MIC [13] [µg/mL] | MIC [14] [µg/mL]
1 | O=[N+]([O-])c1cc([N+]2=C(Nc3ccccc3Br)[S][Cu-2]23[S]C(Nc2ccccc2Br)=[N+]3c2ccc(Cl)c([N+](=O)[O-])c2)ccc1Cl [Compound 1, Copper (II) complex with 1-(2-bromophenyl)-3-(4-chloro-3-nitrophenyl)thiourea] | 4.7 ± 0.3 | 9.7 ± 0.1 | 1.2–3.1 fold | 8 | 8 | 8 | 8 | 128 | 128 | ≥256 | ≥256 | ≥256 | 8 | 8 | 8
2 | O=[N+]([O-])c1cc([N+]2=C(Nc3cccc(Br)c3)[S][Cu-2]23[S]C(Nc2cccc(Br)c2)=[N+]3c2ccc(Cl)c([N+](=O)[O-])c2)ccc1Cl [Compound 2, Copper (II) complex with 1-(3-bromophenyl)-3-(4-chloro-3-nitrophenyl)thiourea] | 24.3 ± 2.6 | 19.2 ± 2.2 | – | 16 | 16 | 16 | 16 | 128 | 128 | 64 | 64 | 64 | 8 | 8 | 8
3 | O=[N+]([O-])c1cc([N+]2=C(Nc3ccc(Br)cc3)[S][Cu-2]23[S]C(Nc2ccc(Br)cc2)=[N+]3c2ccc(Cl)c([N+](=O)[O-])c2)ccc1Cl [Compound 3, Copper (II) complex with 1-(4-bromophenyl)-3-(4-chloro-3-nitrophenyl)thiourea] | 11.9 ± 2.1 | 8.8 ± 0.8 | 1.2–3.1 fold | 8 | 16 | 8 | 8 | 128 | 128 | 64 | 64 | 64 | 4 | 4 | 8
4 | O=[N+]([O-])c1cc([N+]2=C(Nc3ccc(F)c(Cl)c3)[S][Cu-2]23[S]C(Nc2ccc(F)c(Cl)c2)=[N+]3c2ccc(Cl)c([N+](=O)[O-])c2)ccc1Cl [Compound 4, Copper (II) complex with 1-(3-chloro-4-fluorophenyl)-3-(4-chloro-3-nitrophenyl)thiourea] | 19.2 ± 1.1 | 23.2 ± 1.6 | – | 4 | 4 | 4 | 4 | 128 | 128 | 128 | 128 | 64 | 8 | 8 | 8
5 | O=[N+]([O-])c1cc([N+]2=C(Nc3ccc(Cl)c(Cl)c3)[S][Cu-2]23[S]C(Nc2ccc(Cl)c(Cl)c2)=[N+]3c2ccc(Cl)c([N+](=O)[O-])c2)ccc1Cl [Compound 5, Copper (II) complex with 1-(4-chloro-3-nitrophenyl)-3-(3,4-dichlorophenyl)thiourea] | 20.6 ± 2.1 | 11.4 ± 2.4 | 1.2–3.1 fold | 32 | 32 | 32 | 32 | 128 | 128 | 128 | 128 | 64 | 16 | 32 | 32
6 | O=[N+]([O-])c1cc(NC2=[N+](c3ccc(Cl)c([N+](=O)[O-])c3)[Cu-2]3([S]2)[S]C(Nc2ccc(Cl)c([N+](=O)[O-])c2)=[N+]3c2ccc(Cl)c([N+](=O)[O-])c2)ccc1Cl [Compound 6, Copper (II) complex with 1,3-bis(4-chloro-3-nitrophenyl)thiourea] | 26.8 ± 2.3 | 20.3 ± 3.1 | – | 8 | 8 | 8 | 8 | 128 | 128 | 64 | 64 | 64 | 64 | 64 | 128
7 | O=[N+]([O-])c1cc([N+]2=C(Nc3ccccc3F)[S][Cu-2]23[S]C(Nc2ccccc2F)=[N+]3c2ccc(Cl)c([N+](=O)[O-])c2)ccc1Cl [Compound 7, Copper (II) complex with 1-(2-fluorophenyl)-3-(4-chloro-3-nitrophenyl)thiourea] | 15.5 ± 2.6 | 10.8 ± 1.3 | 1.2–3.1 fold | 32 | 32 | 32 | 32 | >256 | 128 | 128 | 128 | 128 | 8 | 8 | 8
8 | O=[N+]([O-])c1cc([N+]2=C(Nc3ccc(I)cc3)[S][Cu-2]23[S]C(Nc2ccc(I)cc2)=[N+]3c2ccc(Cl)c([N+](=O)[O-])c2)ccc1Cl [Compound 8, Copper (II) complex with 1-(4-iodophenyl)-3-(4-chloro-3-nitrophenyl)thiourea] | 3.9 ± 0.8 | 4.3 ± 0.5 | 1.2–3.1 fold | 4 | 4 | 4 | 4 | 128 | 128 | 64 | 128 | 64 | 8 | 8 | 8
